Measurements published in patent US8445677B2, “Substituted pyrimidyl guanidine derivatives having anticancer activity” (University of Southern California, priority 2008, dated 2013).

How the values were obtained:
HCT116 p53+/+ = assay: MTT cytotoxicity assay (Example 1); format: cell-based; conditions: for IC50: MTT, 72 h
Excerpt: (§1) Human breast cancer cells MDA-MB-435 were purchased from the American Type Culture Collection (Manassas, Va.). The HCT116 p53+/+ and HCT116 p53−/− cells were kindly provided by Dr. Bert Vogelstein (Johns Hopkins Medical Institutions, Baltimore, Md.). The human ovarian carcinoma cell line (HEY) which is naturally resistant to cisplatin, was kindly provided by Dr. Louis Dubeau, University of Southern California (USC) Norris Cancer Center, and NIH3T3 normal mouse fibroblast cells were kindly provided by Dr. Michael Press from USC. HEY and NIH3T3 cells were maintained as monolayer cultures in RPMI, HCT 116 cells in McCoy1s5A media and MDA-MB 435 in DMEM. Media were purchased from (Mediatech, Virginia) and supplemented with 10% fetal bovine serum (Gemini-Bioproducts, Woodland, Calif.), 2 mM L-glutamine and 5% Penicillin/streptomycin from Bio whittaker were purchased from VWR. Cells were incubated at 37° C. in a humidified atmosphere of 5% CO2. To remove the adherent cells from the flask for passaging and counting, cells were washed with PBS without calcium or magnesium, incubated with a small volume of 0.25% trypsin-EDTA solution (Sigma-Aldrich, St. Louis, Mo.) for 5-10 min, and washed with culture medium and centrifuged. All experiments were performed using cells at exponential growth stage. Cells were routinely checked for mycoplasma contamination using a PCR-based assay (Stratagene, Tex., USA).
(§2) Stock solutions (10 mM) of all compounds were prepared in DMSO and stored at −20° C. Further dilutions were made fresh in PBS or cell-culture media right before cell treatment.
(§3) Cytotoxicity was assessed by a 3-(4,s-dimethylthiazol-2-yl)-2,5-diphenyltetrazolium bromide (MTT) assay as previously described.^24 Briefly, cells were seeded in 96-well microtiter plates and allowed to attach overnight. Cells were subsequently treated with continuous exposure to the corresponding drug for 72 h. A MTT solution (at a final concentration of 0.5 mglml) was added to each well, and cells were incubated for 4 h at 37° C. After removal of the medium, DMSO was added and the absorbance was read at 570 nm. All assays were done in triplicate. The IC50 was then determined for each drug from a plot of log (drug concentration) versus percentage of cells killed.

HCT116 p53−/− = assay: MTT cytotoxicity assay (Example 1); format: cell-based; conditions: for IC50: MTT, 72 h
Excerpt: as §1, §2, §3

NIH3T3 = assay: MTT cytotoxicity assay (Example 1); format: cell-based, mouse; conditions: Mus musculus, NIH3T3, 72 h
Excerpt: as §1, §2, §3

MDA-MB-435 = assay: MTT cytotoxicity assay (Example 1); format: cell-based, human; conditions: Homo sapiens, MDA-MB-435, 72 h
Excerpt: as §1, §2, §3

HEY = assay: MTT cytotoxicity assay (Example 1); format: cell-based, human; conditions: 72 h
Excerpt: as §1, §2, §3

[1] = tested on: panel of cancer cell lines; assay: MTT cytotoxicity, panel of cancer cell lines (Example 1); format: cell-based; conditions: other selected cells, dose up to 10.0 μM
Excerpt: as §1, with “To remove the adherent cells from the flask for passaging and counting, cells were washed with PBS without calcium or magnesium, incubated with a small volume of 0.25% trypsin-EDTA solution (Sigma-Aldrich, St. Louis, Mo.) for 5-10 min, and washed with culture medium and centrifuged. All experiments were performed using cells at exponential growth stage. Cells were routinely checked for mycoplasma contamination using a PCR-based assay (Stratagene, Tex., USA).” left out
Cytotoxicity was assessed by a 3-(4,s-dimethylthiazol-2-yl)-2,5-diphenyltetrazolium bromide (MTT) assay as previously described.^24 Briefly, cells were seeded in 96-well microtiter plates and allowed to attach overnight. […] After removal of the medium, DMSO was added and the absorbance was read at 570 nm. […] The IC50 was then determined for each drug from a plot of log (drug concentration) versus percentage of cells killed.

Cc1cccc(Nc2nc3nonc3nc2NN=Cc2ccc(-c3ccccc3Cl)o2)c1C [Compound 19]
toxicity (HCT116 p53+/+): toxic | IC50 (HCT116 p53+/+; Homo sapiens, HCT-116, 72 h): 3 µM | IC50 (HCT116 p53+/+): 2 µM | toxicity (HCT116 p53−/−): toxic | IC50 (HCT116 p53−/−; Homo sapiens, HCT-116, 72 h): 6 µM | IC50 (HCT116 p53−/−): 4 µM | IC50 (NIH3T3): > 10 µM | IC50 (MDA-MB-435): > 10 µM | IC50 (HEY): 5 µM | IC50 (HEY; Homo sapiens): 3 µM | toxicity [1]: not toxic
